# ChEMBL document CHEMBL5131517 (ACS Med Chem Lett, 2022)
# Experiments:
# Assay type in all cases: functional, cell-based
# [1] = target: T1, 5-hydroxytryptamine receptor 2B (Homo sapiens, UniProt P41595); assay: Agonist activity at human 5HT2B receptor stably expressed in Flp-In-T-REx-293 cells assessed as maximal Gq-mediated calcium flux by Fluo-4 direct dye based FLIPR Tetra assay relative to control; conditions: filed as agonist
# [2] = target: T2, 5-hydroxytryptamine receptor 2C (Homo sapiens) (UniProt P28335); assay: Agonist activity at human 5HT2C receptor stably expressed in Flp-In-T-REx-293 cells assessed as maximal Gq-mediated calcium flux by Fluo-4 direct dye based FLIPR Tetra assay relative to control
# T2 sequence (whole entry): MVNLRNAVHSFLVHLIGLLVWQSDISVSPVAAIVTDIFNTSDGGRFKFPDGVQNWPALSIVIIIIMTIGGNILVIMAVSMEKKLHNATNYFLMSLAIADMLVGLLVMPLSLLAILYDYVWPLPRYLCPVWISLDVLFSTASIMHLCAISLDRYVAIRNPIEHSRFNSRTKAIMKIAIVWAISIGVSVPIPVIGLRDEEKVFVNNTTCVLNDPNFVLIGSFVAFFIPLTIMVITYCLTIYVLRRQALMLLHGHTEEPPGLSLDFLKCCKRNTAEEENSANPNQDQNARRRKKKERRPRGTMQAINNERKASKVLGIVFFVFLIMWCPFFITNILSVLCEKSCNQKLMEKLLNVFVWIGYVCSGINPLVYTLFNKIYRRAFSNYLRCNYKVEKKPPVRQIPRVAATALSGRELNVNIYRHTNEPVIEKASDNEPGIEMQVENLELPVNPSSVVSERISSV
# [3] = target: T1, 5-hydroxytryptamine receptor 2B; assay: Agonist activity at human 5HT2B receptor stably expressed in Flp-In-T-REx-293 cells assessed as increase in Gq-mediated calcium flux by Fluo-4 direct dye based FLIPR Tetra assay; conditions: read-out: EC50
# [4] = target: T3, 5-hydroxytryptamine receptor 2A (Homo sapiens, UniProt P28223); assay: Agonist activity at human 5HT2A receptor stably expressed in Flp-In-T-REx-293 cells assessed as increase in Gq-mediated calcium flux by Fluo-4 direct dye based FLIPR Tetra assay
# T3 sequence (P28223 whole entry): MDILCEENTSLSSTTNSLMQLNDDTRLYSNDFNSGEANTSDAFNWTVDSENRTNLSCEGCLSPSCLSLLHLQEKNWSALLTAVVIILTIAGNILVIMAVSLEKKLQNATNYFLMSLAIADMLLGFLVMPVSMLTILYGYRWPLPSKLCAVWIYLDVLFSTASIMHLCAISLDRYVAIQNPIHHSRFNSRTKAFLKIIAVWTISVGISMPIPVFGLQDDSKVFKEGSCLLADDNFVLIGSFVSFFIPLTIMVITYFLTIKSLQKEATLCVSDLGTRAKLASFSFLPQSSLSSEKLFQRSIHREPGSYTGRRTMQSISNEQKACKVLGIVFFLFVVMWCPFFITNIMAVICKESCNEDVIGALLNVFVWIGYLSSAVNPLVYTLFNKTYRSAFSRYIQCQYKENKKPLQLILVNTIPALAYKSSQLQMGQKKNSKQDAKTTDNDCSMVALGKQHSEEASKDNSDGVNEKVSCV
# [5] = target: T3, 5-hydroxytryptamine receptor 2A; assay: Agonist activity at human 5HT2A receptor stably expressed in Flp-In-T-REx-293 cells assessed as maximal Gq-mediated calcium flux by Fluo-4 direct dye based FLIPR Tetra assay relative to control
# [6] = target: T4, 5-hydroxytryptamine receptor 2C (Homo sapiens, UniProt P28335); assay: Agonist activity at human 5HT2C receptor stably expressed in Flp-In-T-REx-293 cells assessed as increase in Gq-mediated calcium flux by Fluo-4 direct dye based FLIPR Tetra assay
# T4 sequence (P28335 whole entry): T2 sequence (whole entry)
# T1 sequence (P41595 whole entry): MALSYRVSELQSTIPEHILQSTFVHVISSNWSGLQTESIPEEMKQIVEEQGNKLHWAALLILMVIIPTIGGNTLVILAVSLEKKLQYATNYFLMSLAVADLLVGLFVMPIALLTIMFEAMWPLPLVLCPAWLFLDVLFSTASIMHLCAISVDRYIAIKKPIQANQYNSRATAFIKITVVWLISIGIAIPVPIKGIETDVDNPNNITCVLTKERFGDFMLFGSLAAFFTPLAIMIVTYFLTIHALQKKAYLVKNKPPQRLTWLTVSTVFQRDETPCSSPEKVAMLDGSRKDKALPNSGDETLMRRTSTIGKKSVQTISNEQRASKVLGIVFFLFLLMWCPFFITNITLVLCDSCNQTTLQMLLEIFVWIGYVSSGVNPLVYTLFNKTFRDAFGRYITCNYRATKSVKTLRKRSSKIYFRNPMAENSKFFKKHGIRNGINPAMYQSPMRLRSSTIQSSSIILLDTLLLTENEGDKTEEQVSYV
structure (smiles),measurement,setting,value
Oc1cc(Cl)ccc1C1NCCc2c1[nH]c1ccc(Cl)cc21 (stereo not given),Emax,[1],109%
same,Emax,[2]; filed as agonist,102%
same,EC50,[3],25 nM
same,EC50,[4],52 nM
same,Emax,[5]; filed as agonist,98.5%
same,EC50,[6]; read-out: EC50,47 nM
Oc1cc(Br)ccc1C1NCCc2c1[nH]c1ccc(Cl)cc21 (stereo not given),Emax,[1],106%
same,Emax,[2]; filed as agonist,107%
same,EC50,[3],204 nM
same,EC50,[4],537 nM
same,Emax,[5]; filed as agonist,94.5%
same,EC50,[6]; read-out: EC50,794 nM
Oc1c(Cl)cccc1C1NCCc2c1[nH]c1ccc(Cl)cc21 (stereo not given),Emax,[1],95.9%
same,Emax,[2]; filed as agonist,94%
same,EC50,[3],106 nM
same,EC50,[4],336 nM
same,Emax,[5]; filed as agonist,70.1%
same,EC50,[6]; read-out: EC50,176 nM
Oc1cc(Br)ccc1C1NCCc2c1[nH]c1ccc(F)cc21 (stereo not given),Emax,[1],112%
same,Emax,[2]; filed as agonist,111%
same,EC50,[3],59 nM
same,EC50,[4],147 nM
same,Emax,[5]; filed as agonist,98%
same,EC50,[6]; read-out: EC50,95 nM
Cc1ccc(O)c(C2NCCc3c2[nH]c2ccc(F)cc32)c1 (stereo not given),Emax,[1],115%
same,Emax,[2]; filed as agonist,99.2%
same,EC50,[3],316 nM
same,EC50,[4],1230 nM
same,Emax,[5],36.8%
same,EC50,[6]; read-out: EC50,446 nM
Cc1ccc(O)c(C2NCCc3c2[nH]c2ccc(Cl)cc32)c1 (stereo not given),Emax,[1],106%
same,EC50,[3],4270 nM
Fc1ccc2[nH]c3c(c2c1)CCNC3c1cccs1 (stereo not given),Emax,[2]; filed as agonist,102%
same,EC50,[4],409 nM
same,Emax,[5],36.4%
same,EC50,[6]; read-out: EC50,147 nM
Clc1ccc2[nH]c3c(c2c1)CCNC3c1cccs1 (stereo not given),Emax,[2]; filed as agonist,48.6%
same,EC50,[4],724 nM
same,Emax,[5],23.7%
same,EC50,[6]; read-out: EC50,602 nM
Fc1ccc2[nH]c3c(c2c1)CCNC3C1CCOCC1 (stereo not given),Emax,[2]; filed as agonist,42.3%
same,EC50,[4],354 nM
same,Emax,[5],34.1%
same,EC50,[6]; read-out: EC50,891 nM
COc1ccc2cc(C3NCCc4c3[nH]c3ccc(Cl)cc43)ccc2c1 (stereo not given),Emax,[2]; filed as agonist,93.7%
same,EC50,[4],1320 nM
same,Emax,[5]; filed as agonist,66.8%
same,EC50,[6]; read-out: EC50,1060 nM
Oc1c(Br)cccc1C1NCCc2c1[nH]c1ccc(F)cc21 (stereo not given),Emax,[2]; filed as agonist,109%
same,EC50,[4],116 nM
same,Emax,[5]; filed as agonist,93.1%
same,EC50,[6]; read-out: EC50,66.5 nM
Fc1ccc2[nH]c3c(c2c1)CCNC3c1ccccc1Br (stereo not given),Emax,[2]; filed as agonist,75.1%
same,EC50,[4],98 nM
same,Emax,[5],10.5%
same,EC50,[6]; read-out: EC50,2100 nM
Oc1cccc(C2NCCc3c2[nH]c2ccc(Cl)cc32)c1 (stereo not given),Emax,[2]; filed as agonist,67.4%
same,EC50,[4],3300 nM
same,Emax,[5]; filed as agonist,49.1%
same,EC50,[6]; read-out: EC50,688 nM
Fc1ccc2[nH]c3c(c2c1)CCNC3c1cc2ccccc2s1 (stereo not given),Emax,[2]; filed as agonist,110%
same,EC50,[4],1550 nM
same,Emax,[5]; filed as agonist,40%
same,EC50,[6]; read-out: EC50,912 nM
Fc1ccccc1C1NCCc2c1[nH]c1ccc(Cl)cc21 (stereo not given),Emax,[2],13.9%
same,EC50,[4],8000 nM
same,Emax,[5],23.2%
same,EC50,[6]; read-out: EC50,1160 nM
Oc1ccc2[nH]c3c(c2c1)CCNC3Cc1ccccc1 (stereo not given),Emax,[2]; filed as agonist,100%
same,EC50,[4],288 nM
same,Emax,[5]; filed as agonist,59.2%
same,EC50,[6]; read-out: EC50,481 nM
Clc1ccc2[nH]c3c(c2c1)CCNC3c1ccccc1Cl (stereo not given),Emax,[2]; filed as agonist,109%
same,EC50,[4],12.8 nM
same,Emax,[5]; filed as agonist,95.3%
same,EC50,[6]; read-out: EC50,12.6 nM
Cc1cc(C2NCCc3c2[nH]c2ccc(Cl)cc32)sc1Br (stereo not given),Emax,[2]; filed as agonist,118%
same,EC50,[4],776 nM
same,Emax,[5]; filed as agonist,97.1%
same,EC50,[6]; read-out: EC50,173 nM
Cc1noc(C)c1C1NCCc2c1[nH]c1ccc(F)cc21 (stereo not given),Emax,[2]; filed as agonist,111%
same,EC50,[4],239 nM
same,Emax,[5]; filed as agonist,90.7%
same,EC50,[6]; read-out: EC50,50.1 nM
COc1cc(OC)c(C2NCCc3c2[nH]c2ccc(O)cc32)cc1OC (stereo not given),Emax,[2]; filed as agonist,109%
same,EC50,[4],3.8 nM
same,Emax,[5]; filed as agonist,102%
same,EC50,[6]; read-out: EC50,7.6 nM
Oc1ccc2[nH]c3c(c2c1)CCNC3c1ccccc1F (stereo not given),Emax,[2]; filed as agonist,102%
same,EC50,[4],23 nM
same,Emax,[5]; filed as agonist,91.4%
same,EC50,[6]; read-out: EC50,13.2 nM
Oc1cccc(C2NCCc3c2[nH]c2ccc(O)cc32)c1 (stereo not given),Emax,[2]; filed as agonist,95.4%
same,EC50,[4],223 nM
same,Emax,[5]; filed as agonist,93.4%
same,EC50,[6]; read-out: EC50,148 nM
Oc1ccc2[nH]c3c(c2c1)CCNC3C1CCCCC1 (stereo not given),Emax,[2],28.4%
same,EC50,[4],281 nM
same,Emax,[5]; filed as agonist,74.1%
same,EC50,[6]; read-out: EC50,959 nM
Clc1ccc2[nH]c3c(c2c1)CCNC3c1cncnc1 (stereo not given),Emax,[2],38.7%
same,EC50,[4],898 nM
same,Emax,[5],32.1%
same,EC50,[6]; read-out: EC50,420 nM
Clc1ccc2[nH]c3c(c2c1)CCNC3c1cc2ccccc2s1 (stereo not given),Emax,[2]; filed as agonist,105%
same,EC50,[4],151 nM
same,Emax,[5]; filed as agonist,88%
same,EC50,[6]; read-out: EC50,39 nM
Fc1ccc2[nH]c3c(c2c1)CCNC3c1ccccc1Cl (stereo not given),Emax,[2]; filed as agonist,88.1%
same,EC50,[4],278 nM
same,Emax,[5],28.1%
same,EC50,[6]; read-out: EC50,872 nM
Oc1ccc(Cl)cc1C1NCCc2c1[nH]c1ccc(Cl)cc21 (stereo not given),Emax,[1],111%
same,Emax,[2]; filed as agonist,58.9%
same,EC50,[3],2000 nM
same,EC50,[4],> 10000 nM
same,EC50,[6]; read-out: EC50,3560 nM
Oc1ccc(C2NCCc3c2[nH]c2ccc(O)cc32)cc1 (stereo not given),Emax,[2]; filed as agonist,99.4%
same,EC50,[4],159 nM
same,Emax,[5]; filed as agonist,80%
same,EC50,[6]; read-out: EC50,152 nM
Oc1cccc(C2NCCc3c2[nH]c2ccc(F)cc32)c1 (stereo not given),Emax,[2]; filed as agonist,123%
same,EC50,[4],208 nM
same,Emax,[5]; filed as agonist,83.2%
same,EC50,[6]; read-out: EC50,130 nM
Oc1ccc(C2NCCc3c2[nH]c2ccc(Cl)cc32)cc1 (stereo not given),Emax,[2]; filed as agonist,99.4%
same,EC50,[4],93.8 nM
same,Emax,[5]; filed as agonist,103%
same,EC50,[6]; read-out: EC50,105 nM
Oc1ccc2[nH]c3c(c2c1)CCNC3c1cncnc1 (stereo not given),Emax,[2]; filed as agonist,83.3%
same,EC50,[4],800 nM
same,Emax,[5]; filed as agonist,89.3%
same,EC50,[6]; read-out: pEC50 (converted),2950 nM
Oc1ccccc1C1NCCc2c1[nH]c1ccc(Cl)cc21 (stereo not given),Emax,[2]; filed as agonist,103%
same,EC50,[4],51.7 nM
same,Emax,[5]; filed as agonist,92.7%
same,EC50,[6]; read-out: EC50,15.3 nM
Oc1ccc(C2NCCc3c2[nH]c2ccc(Cl)cc32)c(O)c1 (stereo not given),Emax,[2]; filed as agonist,102%
same,EC50,[4],1.5 nM
same,Emax,[5]; filed as agonist,91.2%
same,EC50,[6]; read-out: EC50,1.9 nM
Cc1cccc(C2NCCc3c2[nH]c2ccc(F)cc32)c1 (stereo not given),Emax,[2]; filed as agonist,114%
same,EC50,[4],160 nM
same,Emax,[5],39.9%
same,EC50,[6]; read-out: EC50,306 nM
Fc1ccc2[nH]c3c(c2c1)CCNC3c1ccccc1 (stereo not given),Emax,[2]; filed as agonist,102%
same,EC50,[4],88.5 nM
same,Emax,[5]; filed as agonist,86.5%
same,EC50,[6]; read-out: EC50,22.4 nM
Fc1ccc2[nH]c3c(c2c1)CCNC3C1CCCCC1 (stereo not given),Emax,[2]; filed as agonist,103%
same,EC50,[4],91.2 nM
same,Emax,[5]; filed as agonist,87.3%
same,EC50,[6]; read-out: EC50,20.4 nM
Cc1ccc(C2NCCc3c2[nH]c2ccc(F)cc32)cc1 (stereo not given),Emax,[2]; filed as agonist,85.4%
same,EC50,[4],208 nM
same,Emax,[5],39.9%
same,EC50,[6]; read-out: EC50,2060 nM
Oc1ccc2[nH]c3c(c2c1)CCNC3c1cccs1 (stereo not given),Emax,[2]; filed as agonist,97%
same,EC50,[4],346 nM
same,Emax,[5]; filed as agonist,44.7%
same,EC50,[6]; read-out: EC50,294 nM
Fc1ccc2[nH]c3c(c2c1)CCNC3c1ccc2ccccc2c1 (stereo not given),Emax,[2]; filed as agonist,103%
same,EC50,[4],195 nM
same,Emax,[5]; filed as agonist,79.1%
same,EC50,[6]; read-out: EC50,186 nM
COc1ccc(OC)c(C2NCCc3c2[nH]c2ccc(F)cc32)c1 (stereo not given),Emax,[1],52.1%
same,Emax,[2]; filed as agonist,55.3%
same,EC50,[3],588 nM
same,EC50,[4],> 10000 nM
same,EC50,[6]; read-out: EC50,1600 nM
